Measurements as given in patent US12371454B2, “Cyclic peptide compound having Kras inhibitory action” (priority 2019, dated 2025).
Positions of bridges follow the written chain, without caps; N, C: chain ends. Non-standard residues stand in square brackets, D forms with d. Residues, ends and D or L forms follow the SMILES beside them. *: point of attachment. NMeAbu(3,3-F2-piperidino) = CN[C@@H](CCN1CCCC(F)(F)C1)C(=O)O; hPhe(3-Cl-4-CF3) = N[C@@H](CCc1ccc(C(F)(F)F)c(Cl)c1)C(=O)O; hPhe(4-CF3) = N[C@@H](CCc1ccc(C(F)(F)F)cc1)C(=O)O; NMePhe(4-Cl) = CN[C@@H](Cc1ccc(Cl)cc1)C(=O)O; NMePhe(4-Me) = CN[C@@H](Cc1ccc(C)cc1)C(=O)O; Oic = O=C(O)[C@@H]1C[C@@H]2CCCC[C@@H]2N1; NMeCha = CN[C@@H](CC1CCCCC1)C(=O)O; NMeGly(cPr) = CN[C@H](C(=O)O)C1CC1; hhPhe = N[C@@H](CCCc1ccccc1)C(=O)O; NMeChg = CN[C@H](C(=O)O)C1CCCCC1; NMeI = CC[C@H](C)[C@H](NC)C(=O)O; NMeD = CN[C@@H](CC(=O)O)C(=O)O; NMeL = CN[C@@H](CC(C)C)C(=O)O; NMeV = CN[C@H](C(=O)O)C(C)C; d(β3hA) = C[C@@H](N)CC(=O)O; NMeA = CN[C@@H](C)C(=O)O; Piperidide = C1CCN(*)CC1; Ac5c = NC1(C(=O)O)CCCC1; Aze = O=C(O)[C@@H]1CCN1; Aib = CC(C)(N)C(=O)O; Sar = CNCC(=O)O

biological target: T1, Kras and SOS1 (biotin-tagged human Kras loaded with GDP, His-tagged human SOS1) (Homo sapiens, UniProt P01116, G12D); test: Protein-protein interaction inhibition between Kras and SOS1 (KrasGl2D-SOS PPI) using AlphaScreen; format: binding; conditions: AlphaScreen; biotin-tagged human Kras loaded with GDP, His-tagged human SOS1; read-out: KRAS G12D-SOS PPI IC50
T1 construct: made in house; host or cells: E. coli (stated for Kras only)
T1 sequence (P01116 1-188 isoform P01116-2 G12D): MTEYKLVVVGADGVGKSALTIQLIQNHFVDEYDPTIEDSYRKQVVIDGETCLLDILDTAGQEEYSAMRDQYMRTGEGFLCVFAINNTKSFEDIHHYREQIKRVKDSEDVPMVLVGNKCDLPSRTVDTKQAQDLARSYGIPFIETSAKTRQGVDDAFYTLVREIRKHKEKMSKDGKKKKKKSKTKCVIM
Procedure, shortened: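 Energy transfer from nickel-chelate donor beads bound to His-SOS1 to streptavidin acceptor beads bound to biotin-Kras, expressed in E. coli and loaded with GDP after purification, was monitored. Donors were excited at 680 nm; singlet oxygen reaching acceptors gave emission read at 520-620 nm.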

Going from `CC[C@H](C)[C@@H]1NC(=O)[C@H](CC(C)C)N(C)C(=O)C[C@@H](C(=O)N(C)C)N(C)C(=O)[C@H]([C@@H](C)CC)N(C)C(=O)[C@H](C(C)C)NC(=O)[C@H](CCN2CCCC(F)(F)C2)N(C)C(=O)[C@H](CCc2ccc(C(F)(F)F)c(Cl)c2)NC(=O)CN(C)C(=O)[C@H](Cc2ccc(C)cc2)N(C)C(=O)[C@@H]2CCN2C(=O)[C@H](C)N(C)C1=O` [Compound 379] ([NMeL]I[NMeA][Aze][NMePhe(4-Me)][Sar][hPhe(3-Cl-4-CF3)][NMeAbu(3,3-F2-piperidino)]V[NMeI][NMeD]-NMe2; lactam N-11) to `CC[C@H](C)[C@@H]1NC(=O)[C@H](CC(C)C)N(C)C(=O)C[C@@H](C)NC(=O)[C@H](CC(C)C)N(C)C(=O)C(C)(C)NC(=O)[C@@H]2C[C@@H]3CCCC[C@@H]3N2C(=O)[C@H](CCc2ccc(C(F)(F)F)cc2)NC(=O)CN(C)C(=O)[C@H](Cc2ccc(Cl)cc2)N(C)C(=O)CN(C)C(=O)CN(C)C1=O` [Compound 922] (cyclo([Aib][NMeL][d(β3hA)][NMeL]I[Sar][Sar][NMePhe(4-Cl)][Sar][hPhe(4-CF3)][Oic])), the IC50 rises from 13 nM to 230 nM (18-fold). The first is the more potent here.

First: CC[C@H](C)[C@@H]1NC(=O)[C@H](C)N(C)C(=O)C[C@@H](C(=O)N2CCCCC2)N(C)C(=O)[C@H](C2CCCCC2)N(C)C(=O)C2(CCCC2)NC(=O)[C@@H]2CCCN2C(=O)[C@H](COc2ccc(Cl)cc2)NC(=O)CN(C)C(=O)[C@H](CC2CCCCC2)N(C)C(=O)CN(C)C(=O)CN(C)C1=O [Compound 2042, (3S,9S,18S,21S,25S,28S,34S)-3-[(4-chlorophenoxy)methyl]-28-cyclohexyl-9-(cyclohexylmethyl)-7,10,13,16,21,22,26,29-octamethyl-18-[(1S)-1-methylpropyl]-25-(piperidine-1-carbonyl)spiro[1,4,7,10,13,16,19,22,26,29,32-undecazabicyclo[32.3.0]heptatriacontane-31,1′-cyclopentane]-2,5,8,11,14,17,20,23,27,30,33-undecone]
Second: CC[C@H](C)[C@@H]1NC(=O)[C@H](C)N(C)C(=O)C[C@@H](C(=O)N2CCCCC2)N(C)C(=O)[C@H](C2CCCCC2)N(C)C(=O)C2(CCCC2)NC(=O)[C@@H]2CCCN2C(=O)[C@H](CCCc2ccccc2)NC(=O)CN(C)C(=O)[C@H](CC2CCCCC2)N(C)C(=O)CN(C)C(=O)CN(C)C1=O [Compound 633] ([NMeA]I[Sar][Sar][NMeCha][Sar][hhPhe]P[Ac5c][NMeChg][NMeD]-Piperidide; lactam N-11)
The IC50 of the first is 1.7-fold lower: 70 nM for the first, 120 nM for the second. The first is the more potent here.

Compared with `CC[C@H](C)[C@@H]1NC(=O)[C@H](CC(C)C)N(C)C(=O)C[C@@H](C(=O)N2CCCCC2)N(C)C(=O)[C@H](C2CCCCC2)N(C)C(=O)C2(CCCC2)NC(=O)[C@H](CC(=O)O)N(C)C(=O)[C@H](CCc2ccc(C(F)(F)F)c(Cl)c2)NC(=O)CN(C)C(=O)[C@H](CC2CCCCC2)N(C)C(=O)CN(C)C(=O)CN(C)C1=O` [Compound 688] ([NMeL]I[Sar][Sar][NMeCha][Sar][hPhe(3-Cl-4-CF3)][NMeD][Ac5c][NMeChg][NMeD]-Piperidide; lactam N-11), `CC[C@H](C)[C@@H]1NC(=O)[C@H](CC(C)C)N(C)C(=O)C[C@@H](C(=O)N2CCCCC2)N(C)C(=O)[C@H](C2CC2)N(C)C(=O)C2(CCCC2)NC(=O)[C@@H]2CCCN2C(=O)[C@H](CCc2ccc(C(F)(F)F)c(Cl)c2)NC(=O)CN(C)C(=O)[C@H](CC2CCCCC2)N(C)C(=O)CN(C)C(=O)CN(C)C1=O` [Compound 197] ([NMeL]I[Sar][Sar][NMeCha][Sar][hPhe(3-Cl-4-CF3)]P[Ac5c][NMeGly(cPr)][NMeD]-Piperidide; lactam N-11) is 3-fold higher in IC50: 2.3 nM for the first, 6.8 nM for the second.

In the case of `CC[C@H](C)[C@@H]1NC(=O)[C@H](C2CC2)N(C)C(=O)C[C@@H](C)NC(=O)[C@H](C(C)C)N(C)C(=O)C2(CCCC2)NC(=O)[C@@H]2CCCN2C(=O)[C@H](CCc2ccc(C(F)(F)F)c(Cl)c2)NC(=O)CN(C)C(=O)[C@H](CC2CCCCC2)N(C)C(=O)CN(C)C(=O)CN(C)C1=O` [Compound 844] (cyclo([Ac5c][NMeV][d(β3hA)][NMeGly(cPr)]I[Sar][Sar][NMeCha][Sar][hPhe(3-Cl-4-CF3)]P)), the IC50 is reported as 28 nM.
